The target in the assay is T1, human HPK1 (MAP4K1) (Homo sapiens, UniProt Q92918).
T1 construct: Recombinant human HPK1 kinase domain was obtained from ThermoFisher (Cat. #PV6357) and SignalChem (Cat. #M23-11G); purchased ThermoFisher; SignalChem PV6357; M23-11G
T1 sequence (Q92918 17-274 limits assumed): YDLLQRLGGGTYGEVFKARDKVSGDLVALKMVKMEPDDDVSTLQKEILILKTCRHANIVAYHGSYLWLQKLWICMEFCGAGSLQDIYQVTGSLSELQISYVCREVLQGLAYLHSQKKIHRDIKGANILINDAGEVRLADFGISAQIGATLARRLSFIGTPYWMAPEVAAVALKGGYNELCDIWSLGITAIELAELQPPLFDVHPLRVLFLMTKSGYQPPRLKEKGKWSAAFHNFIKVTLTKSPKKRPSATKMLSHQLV
Briefly: Biochemical assay for activity against HPK1 (ADP-Glo, MBP substrate). The note with it: recombinant human HPK1 kinase domain, 1 nM enzyme, ADP-Glo luminescence. In short, it runs like this: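 IC50s come from ADP-Glo luminescence after a 2 h room-temperature reaction phosphorylating MBP in the presence of ATP. Compound was first preincubated 15 min with 1 nM HPK1 kinase domain, human recombinant. Buffer: 50 mM HEPES pH 7.5, 150 mM NaCl, 3 mM TCEP, 10 mM MgCl2, 0.005% Tween-20, 0.01% BSA.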

Each structure is given as a SMILES string. Where a name gives a salt, the structure may show the parent alone.

What is called IC50 is the concentration needed to halve the response being measured. With `COc1cc2c(cc1Nc1ncc3cnn(C[C@H]4C[C@@H](NS(C)(=O)=O)C4)c3n1)CN(C)CC2` [Example 120, cis N-(3-((6-((6-methoxy-2-methyl-1,2,3,4-tetrahydroisoquinolin-7-yl)amino)-1H-pyrazolo[3,4-d]pyrimidin-1-yl)methyl)cyclobutyl)methanesulfonamide trifluoroacetate], the IC50 is under 100 nM.

On to `COc1cc2c(cc1Nc1ncc3cnn(C[C@@H]4C[C@@H]4C(=O)O)c3n1)CN(C)CC2` (racemic) [Example 188, (cis)-2-((6-((6-methoxy-2-methyl-1,2,3,4-tetrahydroisoquinolin-7-yl)amino)-1H-pyrazolo[3,4-d]pyrimidin-1-yl)methyl)cyclopropane-1-carboxylic Acid], for which the half-maximal inhibitory concentration (IC50) is under 100 nM.

For `COc1cc2c(cc1Nc1ncc3cnn([C@H]4CC[C@H](CO)C4)c3n1)CN(C)CC2` (racemic) [Example 48, rac-(trans-3-(6-((6-methoxy-2-methyl-1,2,3,4-tetrahydroisoquinolin-7-yl)amino)-1H-pyrazolo[3,4-d]pyrimidin-1-yl)cyclopentyl)methanol], the IC50 was under 100 nM.

For the molecule `COc1cc2c(cc1Nc1ncc3cnn(C[C@@H]4C[C@H](C)CN4C(C)=O)c3n1)CN(C)CC2` [Example 136, 1-((2S,4S)-2-((6-((6-methoxy-2-methyl-1,2,3,4-tetrahydroisoquinolin-7-yl)amino)-1H-pyrazolo[3,4-d]pyrimidin-1-yl)methyl)-4-methylpyrrolidin-1-yl)ethan-1-one], the IC50 was 100 to 250 nM.

With `COc1cc2c(cc1Nc1ncc3cnn([C@H]4CC[C@@H](CO)CC4)c3n1)CN(C)CC2` [Example 67, cis-[4-[6-[(6-methoxy-2-methyl-3,4-dihydro-1H-isoquinolin-7-yl)amino]pyrazolo[3,4-d]pyrimidin-1-yl]cyclohexyl]methanol], the IC50 is under 100 nM.

Take `COc1cc2c(cc1Nc1ncc3cnn(C[C@@H]4CCCN4C(C)=O)c3n1)[C@@H](C)N(C)CC2` [Example 184, 1-((S)-2-((6-(((R)-6-methoxy-1,2-dimethyl-1,2,3,4-tetrahydroisoquinolin-7-yl)amino)-1H-pyrazolo[3,4-d]pyrimidin-1-yl)methyl)pyrrolidin-1-yl)ethan-1-one]: the half-inhibitory concentration (IC50) is under 100 nM.

As for `COc1cc2c(cc1Nc1ncc3cnn([C@H]4C[C@H](CNC(C)=O)C4)c3n1)CN(C)CC2` [Example 122, N-((trans-3-(6-((6-methoxy-2-methyl-1,2,3,4-tetrahydroisoquinolin-7-yl)amino)-1H-pyrazolo[3,4-d]pyrimidin-1-yl)cyclobutyl)methyl)acetamide 2,2,2-trifluoroacetate], the IC50 is under 100 nM.

As for `CO[C@H]1CC[C@@H](n2ncc3cnc(Nc4ccc5c(c4)CN(C)CC5)nc32)CC1` [Example 36, N-(1-((cis)-4-methoxycyclohexyl)-1H-pyrazolo[3,4-d]pyrimidin-6-yl)-2-methyl-1,2,3,4-tetrahydroisoquinolin-7-amine], the concentration for half-maximal inhibition (IC50) is under 100 nM.

`COc1cc2c(cc1Nc1ncc3cnn(C[C@H]4CCCN(S(C)(=O)=O)C4)c3n1)CN(C)CC2` [Example 143, 6-methoxy-2-methyl-N-[1-[[(3R)-1-methylsulfonyl-3-piperidyl]methyl]pyrazolo[3,4-d]pyrimidin-6-yl]-3,4-dihydro-1H-isoquinolin-7-amine]: the IC50 is under 100 nM.

With `COc1cc2c(cc1Nc1ncc3cnn([C@H]4CCC[C@H](C(=O)O)C4)c3n1)CN(C)CC2` (racemic) [Example 28, rac-(1S,3S)-3-(6-((6-methoxy-2-methyl-1,2,3,4-tetrahydroisoquinolin-7-yl)amino)-1H-pyrazolo[3,4-d]pyrimidin-1-yl)cyclohexane-1-carboxylic acid], the half-inhibitory concentration (IC50) is under 100 nM.

As for `COc1cc2c(cc1Nc1ncc3cnn([C@H]4CC[C@H](O)CC4)c3n1)CN(CCF)CC2` [Example 153, trans-4-(6-((2-(2-fluoroethyl)-6-methoxy-1,2,3,4-tetrahydroisoquinolin-7-yl)amino)-1H-pyrazolo[3,4-d]pyrimidin-1-yl)cyclohexan-1-ol], the IC50 is under 100 nM.

Consider `COc1cc2c(cc1Nc1ncc3cnn(C[C@@H]4CCCN4C(C)=O)c3n1)CN(C[C@@H](C)O)CC2` [Example 195, 1-((S)-2-((6-((2-((R)-2-hydroxypropyl)-6-methoxy-1,2,3,4-tetrahydroisoquinolin-7-yl)amino)-1H-pyrazolo[3,4-d]pyrimidin-1-yl)methyl)pyrrolidin-1-yl)ethan-1-one], for which the concentration for half-maximal inhibition (IC50) is under 100 nM.

On to `COc1cc2c(cc1Nc1ncc3cnn(C[C@@H]4C[C@H](F)CN4C(C)=O)c3n1)CN(CCO)CC2` [Example 222, 1-((2S,4S)-4-fluoro-2-((6-((2-(2-hydroxyethyl)-6-methoxy-1,2,3,4-tetrahydroisoquinolin-7-yl)amino)-1H-pyrazolo[3,4-d]pyrimidin-1-yl)methyl)pyrrolidin-1-yl)ethan-1-one], for which the half-maximal inhibitory concentration (IC50) is under 100 nM.

As to `COc1cc2c(cc1Nc1ncc3cnn(C[C@H](C)NS(C)(=O)=O)c3n1)CN(C)CC2` [Example 94, N-[(1S)-2-[6-[(6-methoxy-2-methyl-3,4-dihydro-1H-isoquinolin-7-yl]amino]pyrazolo[3,4-d]pyrimidin-1-yl]-1-methyl-ethyl]methanesulfonamide], the concentration for half-maximal inhibition (IC50) fell in the range of 100 to 250 nM.

Regarding `COc1cc2c(cc1Nc1ncc3cnn(C[C@H]4CCCN4C(C)=O)c3n1)CN(C)CC2` [Example 117, (R)-1-(2-((6-((6-methoxy-2-methyl-1,2,3,4-tetrahydroisoquinolin-7-yl)amino)-1H-pyrazolo[3,4-d]pyrimidin-1-yl)methyl)pyrrolidin-1-yl)ethan-1-one trifluoroacetate], the IC50 is under 100 nM.

Take `COc1cc2c(cc1Nc1ncc3cnn(C[C@@H]4C[C@@H](C)CN4C(C)=O)c3n1)CN(C)CC2` [Example 138, 1-((2S,4R)-2-((6-((6-methoxy-2-methyl-1,2,3,4-tetrahydroisoquinolin-7-yl)amino)-1H-pyrazolo[3,4-d]pyrimidin-1-yl)methyl)-4-methylpyrrolidin-1-yl)ethan-1-one]: the IC50 is under 100 nM.

For `COc1cc2c(cc1Nc1ncc3cnn([C@H]4C[C@](C)(C(=O)OC)C4)c3n1)CN(C)CC2` [Example 70, trans-methyl 3-[6-[(6-methoxy-2-methyl-3,4-dihydro-1H-isoquinolin-7-yl)amino]pyrazolo[3,4-d]pyrimidin-1-yl]-1-methyl-cyclobutanecarboxylate], the IC50 was under 100 nM.

Consider `COc1cc2c(cc1Nc1ncc3cnn(C[C@@H]4CCCN4C(C)=O)c3n1)[C@H](C)N(C)CC2` [Example 185, 1-((S)-2-((6-(((S)-6-methoxy-1,2-dimethyl-1,2,3,4-tetrahydroisoquinolin-7-yl)amino)-1H-pyrazolo[3,4-d]pyrimidin-1-yl)methyl)pyrrolidin-1-yl)ethan-1-one hydrochloride], for which the IC50 is under 100 nM.

`COc1cc2c(cc1Nc1ncc3cnn([C@H]4CCC[C@H](C(N)=O)C4)c3n1)CN(C)CC2` (racemic) [Example 29, rac-(1S,3S)-3-(6-((6-methoxy-2-methyl-1,2,3,4-tetrahydroisoquinolin-7-yl)amino)-1H-pyrazolo[3,4-d]pyrimidin-1-yl)cyclohexane-1-carboxamide]: the concentration for half-maximal inhibition (IC50) is under 100 nM.

As for `CNC(=O)[C@]1(C)C[C@@H](n2ncc3cnc(Nc4cc5c(cc4OC)CCN(C)C5)nc32)C1` [Example 73, trans-3-[6-[(6-methoxy-2-methyl-3,4-dihydro-1H-isoquinolin-7-yl)amino]pyrazolo[3,4-d]pyrimidin-1-yl]-N,1-methyl-cyclobutanecarboxamide], the 50% inhibitory concentration (IC50) is under 100 nM.

For `COc1cc2c(cc1Nc1ncc3cnn(C[C@@H]4C[C@H](F)CN4C(C)=O)c3n1)CN(C)CC2` [Example 146, 1-[(2S,4S)-4-fluoro-2-[[6-[(6-methoxy-2-methyl-3,4-dihydro-1H-isoquinolin-7-yl)amino]pyrazolo[3,4-d]pyrimidin-1-yl]methyl]pyrrolidin-1-yl]ethan-1-one], the 50% inhibitory concentration (IC50) was under 100 nM.

As for `COc1cc2c(cc1Nc1ncc3cnn(C[C@H]4CCCN(C(C)=O)C4)c3n1)CN(C)CC2` [Example 142, I-[(3S)-3-[[6-[(6-methoxy-2-methyl-3,4-dihydro-1H-isoquinolin-7-yl)amino]pyrazolo[3,4-d]pyrimidin-1-yl]methyl]-1-piperidyl]ethan-1-one], the concentration for half-maximal inhibition (IC50) was under 100 nM.

As for `CN1CCc2ccc(Nc3ncc4cnn(C5CCCCC5)c4n3)cc2C1` [Example 102, N-(1-cyclohexyl-1H-pyrazolo[3,4-d]pyrimidin-6-yl)-2-methyl-1,2,3,4-tetrahydroisoquinolin-7-amine], the 50% inhibitory concentration (IC50) was under 100 nM.

For the molecule `COc1cc2c(cc1Nc1ncc3cnn([C@H]4CC[C@H](O)CC4)c3n1)CN(C)CC2` [Example 49, trans-4-(6-((6-methoxy-2-methyl-1,2,3,4-tetrahydroisoquinolin-7-yl)amino)-1H-pyrazolo[3,4-d]pyrimidin-1-yl)cyclohexan-1-ol], the IC50 is under 100 nM.

In the case of `COc1cc2c(cc1Nc1ncc3cnn([C@H]4CC[C@@H](O)CC4)c3n1)CN(C)CC2` [Example 39, (1s,4s)-4-(6-((6-methoxy-2-methyl-1,2,3,4-tetrahydroisoquinolin-7-yl)amino)-1H-pyrazolo[3,4-d]pyrimidin-1-yl)cyclohexan-1-ol], the IC50 is under 100 nM.

Regarding `COc1cc2c(cc1Nc1ncc3cnn(C[C@H]4[C@H](C)CCN4C(C)=O)c3n1)CN(C)CC2` (single isomer, unassigned) [Example 147], the IC50 was 100 to 250 nM.

For the origin of these results see US11918582B2 (RAPT Therapeutics, Inc., priority 2021, dated 2024).
